Results reported in US9527849B2, “Salt and polymorph of pyrazolopyrimidinone compound, and pharmaceutical composition containing the same, preparation method and use thereof” (TOPHARMAN SHANGHAI CO., LTD., priority 2011, dated 2016).
“Also recorded” adds a separate entry of the source. Structures can show the parent of a compound that is named as a salt. Where two headings read alike, the source gives them in different places.

How the values were obtained:
[1] = Hygroscopicity, moisture weight gain in desiccator; type: physicochemical; settings: for Moisture weight gain (%): relative humidity 92.5%, 48 hours, room temperature
Procedure: The hygroscopicities of various salts of compound Z were studied. A certain amount of the sample was placed in a precisely-weighted glass weighing bottle with a stopper to accurately weight. Then the open glass weighing bottle was placed in a desiccator (the saturated potassium nitrate solution was placed at the lower part of the desiccator, the relative humidity was 92.5%) and stood for 48 hours at room temperature. And then the glass weighing bottle was covered with the stopper and weighted again. The absorbent weight can be calculated.

[2] = test system: rats cavernous body pressure/arterial blood pressure (ICP/BP); experiment: Erectile dysfunction (ED) efficacy trial in vivo in rats, method of WO2007056955; settings: Dose 10 mg/kg, after the administration
[3] = target: PDE1; experiment: In vitro activity against PDE isoenzyme; type: biochemical; settings: for IC50: PDE1
[4] = target: PDE4; experiment: In vitro activity against PDE isoenzyme; type: biochemical; settings: for IC50: PDE4
[5] = target: PDE7; experiment: In vitro activity against PDE isoenzyme; type: biochemical; settings: for IC50: PDE7
[6] = target: PDE8; experiment: In vitro activity against PDE isoenzyme; type: biochemical; settings: for IC50: PDE8
[7] = Impact factor stability test (high temperature, high humidity, light exposure); type: physicochemical; settings: for chemical stability (in words): high temperature, high humidity
Source text: The basic compounds of compound Z and the maleate thereof were selected to compare the chemical stability through an impact factor test, and results were shown in Table 8: […]

[8] = Comparison of solubility in water and buffer solutions; type: physicochemical; settings: for solubility (in words): in water and in other solvents; for solubility: thermodynamic from solid
Procedure: The basic compound Z and various salts of compound Z were selected to compare the solubility. Appropriate amount of sample was weighed, placed in glass tubes. The predetermined solvent was added gradually and the extension of clear of the solution was observed. The solvent included the follows: pure water (pH 6.2), hydrochloric acid solution (pH1.0), a standard potassium hydrogen phthalate buffer solution (pH 4.0), and a mixed phosphate buffer solution (pH 6.86).

[9] = Comparison of appearance, characters and odor; type: physicochemical
Source text: The basic compound Z and various salts of compound Z were selected to compare the appearance and characters.

[10] = Comparison of salts and crystalline forms (crystal water, static, stability, component, crystalline form); type: physicochemical
[11] = target: PDE2 (Homo sapiens, UniProt O00408); experiment: In vitro activity against PDE isoenzyme; type: biochemical
[12] = target: PDE3; experiment: In vitro activity against PDE isoenzyme; type: biochemical
[13] = target: PDE5 (Homo sapiens, UniProt O76074); experiment: In vitro activity against PDE isoenzyme; type: biochemical
[14] = target: PDE6; experiment: In vitro activity against PDE isoenzyme; type: biochemical
[15] = target: PDE9 (Homo sapiens, UniProt O76083); experiment: In vitro activity against PDE isoenzyme; type: biochemical
[16] = target: PDE10 (Homo sapiens, UniProt Q9Y233); experiment: In vitro activity against PDE isoenzyme; type: biochemical
[17] = target: PDE11 (Homo sapiens, UniProt Q9HCR9); experiment: In vitro activity against PDE isoenzyme; type: biochemical
[18] = test system: rats with pulmonary arterial hypertension; experiment: Pulmonary arterial hypertension (PAH) rats, chronic oral administration; type: in vivo; settings: each dose group, FIG. 17
Source text: (§1) The effects of maleate of compound Z on pulmonary artery pressure of pulmonary arterial hypertension rats were studied according to the method described in the reference (J Pharmacol Sci, 111, 235-243 (2009)).

[19] = test system: rats with pulmonary arterial hypertension; experiment: Pulmonary arterial hypertension (PAH) rats, single intravenous administration; type: in vivo; settings: single intravenous administration of 1 mg/kg, FIG. 18
Source text: as §1

[20] = test system: cavernous pressure in rats; experiment: Cavernous pressure in rats induced by electric stimulus to the erectile nerve (ED); type: in vivo; settings: rat, 2.50-5.00 mg/kg through duodenum; FIG. 19
Source text: The effect of maleate of compound Z on the cavernous pressure variation in rats induced by the electric stimulus to the erectile nerve was studied according to the method described in the reference (International Journal of Impotence Research (2002) 14, 251-255).

[21] = High temperature, 5 days, listed as Compound Z (basic)
[22] = High temperature, 10 days, listed as Compound Z (basic)
[23] = Light exposure, 5 days, listed as Compound Z (basic)
[24] = Light exposure, 10 days, listed as Compound Z (basic)

PDE9, sequence (O76083 whole entry): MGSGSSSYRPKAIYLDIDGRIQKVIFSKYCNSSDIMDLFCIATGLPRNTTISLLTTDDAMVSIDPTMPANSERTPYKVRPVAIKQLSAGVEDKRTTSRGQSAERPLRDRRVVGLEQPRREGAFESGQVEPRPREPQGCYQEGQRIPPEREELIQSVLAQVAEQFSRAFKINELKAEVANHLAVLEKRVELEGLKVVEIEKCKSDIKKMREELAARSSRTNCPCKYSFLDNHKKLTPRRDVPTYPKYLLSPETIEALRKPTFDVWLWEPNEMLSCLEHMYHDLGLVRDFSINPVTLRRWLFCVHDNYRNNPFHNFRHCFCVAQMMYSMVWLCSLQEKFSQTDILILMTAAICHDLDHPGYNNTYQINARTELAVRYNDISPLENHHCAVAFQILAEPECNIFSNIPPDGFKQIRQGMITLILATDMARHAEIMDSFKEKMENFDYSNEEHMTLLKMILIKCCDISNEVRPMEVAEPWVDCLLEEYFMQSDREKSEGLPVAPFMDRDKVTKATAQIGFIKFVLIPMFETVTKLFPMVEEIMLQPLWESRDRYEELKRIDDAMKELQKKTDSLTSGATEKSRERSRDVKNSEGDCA
PDE10, sequence (Q9Y233 whole entry): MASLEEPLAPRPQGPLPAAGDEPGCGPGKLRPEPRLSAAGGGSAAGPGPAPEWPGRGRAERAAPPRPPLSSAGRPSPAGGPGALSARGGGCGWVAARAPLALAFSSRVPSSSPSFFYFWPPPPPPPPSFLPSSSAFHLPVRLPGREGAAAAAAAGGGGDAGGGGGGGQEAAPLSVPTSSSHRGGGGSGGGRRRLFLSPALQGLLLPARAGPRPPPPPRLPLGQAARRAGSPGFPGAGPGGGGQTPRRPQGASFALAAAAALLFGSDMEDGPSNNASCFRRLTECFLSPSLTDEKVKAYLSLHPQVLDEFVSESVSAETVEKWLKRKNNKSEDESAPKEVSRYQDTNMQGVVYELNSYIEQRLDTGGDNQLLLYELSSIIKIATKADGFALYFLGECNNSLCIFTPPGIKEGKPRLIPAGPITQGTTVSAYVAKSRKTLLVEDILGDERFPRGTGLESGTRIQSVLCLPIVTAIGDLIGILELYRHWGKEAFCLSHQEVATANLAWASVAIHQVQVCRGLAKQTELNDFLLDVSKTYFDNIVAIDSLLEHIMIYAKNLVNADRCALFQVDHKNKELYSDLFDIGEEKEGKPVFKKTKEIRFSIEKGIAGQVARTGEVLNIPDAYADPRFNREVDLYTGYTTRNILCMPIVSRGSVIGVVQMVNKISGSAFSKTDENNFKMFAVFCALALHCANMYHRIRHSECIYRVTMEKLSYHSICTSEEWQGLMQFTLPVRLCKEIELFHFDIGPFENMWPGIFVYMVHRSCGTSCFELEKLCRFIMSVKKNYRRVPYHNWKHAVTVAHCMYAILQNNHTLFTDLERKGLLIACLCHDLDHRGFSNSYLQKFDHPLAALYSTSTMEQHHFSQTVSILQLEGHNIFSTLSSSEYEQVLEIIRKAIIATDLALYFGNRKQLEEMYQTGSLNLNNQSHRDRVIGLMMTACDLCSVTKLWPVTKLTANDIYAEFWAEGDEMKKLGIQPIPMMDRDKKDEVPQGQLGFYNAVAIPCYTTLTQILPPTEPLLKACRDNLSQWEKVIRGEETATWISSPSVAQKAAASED
PDE2, sequence (O00408 whole entry): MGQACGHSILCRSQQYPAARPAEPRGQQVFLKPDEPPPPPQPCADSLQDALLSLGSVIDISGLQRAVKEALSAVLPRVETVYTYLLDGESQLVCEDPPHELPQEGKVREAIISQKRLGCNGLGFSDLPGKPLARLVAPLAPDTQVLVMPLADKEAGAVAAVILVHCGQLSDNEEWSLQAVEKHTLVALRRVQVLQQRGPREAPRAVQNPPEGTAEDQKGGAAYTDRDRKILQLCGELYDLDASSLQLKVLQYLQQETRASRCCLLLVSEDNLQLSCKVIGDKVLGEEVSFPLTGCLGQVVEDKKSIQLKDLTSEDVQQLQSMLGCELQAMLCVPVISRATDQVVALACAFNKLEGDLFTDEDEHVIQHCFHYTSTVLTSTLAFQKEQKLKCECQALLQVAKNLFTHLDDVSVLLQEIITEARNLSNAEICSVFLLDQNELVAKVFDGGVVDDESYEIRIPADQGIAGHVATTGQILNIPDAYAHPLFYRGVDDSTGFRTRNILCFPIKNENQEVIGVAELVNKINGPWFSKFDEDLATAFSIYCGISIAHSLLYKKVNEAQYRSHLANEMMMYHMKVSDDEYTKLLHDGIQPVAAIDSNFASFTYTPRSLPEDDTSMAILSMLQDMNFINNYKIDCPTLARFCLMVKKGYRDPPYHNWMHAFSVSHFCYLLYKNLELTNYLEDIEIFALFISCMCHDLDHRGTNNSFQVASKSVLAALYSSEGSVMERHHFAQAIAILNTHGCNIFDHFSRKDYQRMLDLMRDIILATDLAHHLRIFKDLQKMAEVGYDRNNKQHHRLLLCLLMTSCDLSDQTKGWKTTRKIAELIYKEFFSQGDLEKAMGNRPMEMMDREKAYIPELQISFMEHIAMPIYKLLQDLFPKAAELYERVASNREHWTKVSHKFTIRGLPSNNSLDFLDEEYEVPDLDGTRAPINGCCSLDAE
PDE11, sequence (Q9HCR9 whole entry): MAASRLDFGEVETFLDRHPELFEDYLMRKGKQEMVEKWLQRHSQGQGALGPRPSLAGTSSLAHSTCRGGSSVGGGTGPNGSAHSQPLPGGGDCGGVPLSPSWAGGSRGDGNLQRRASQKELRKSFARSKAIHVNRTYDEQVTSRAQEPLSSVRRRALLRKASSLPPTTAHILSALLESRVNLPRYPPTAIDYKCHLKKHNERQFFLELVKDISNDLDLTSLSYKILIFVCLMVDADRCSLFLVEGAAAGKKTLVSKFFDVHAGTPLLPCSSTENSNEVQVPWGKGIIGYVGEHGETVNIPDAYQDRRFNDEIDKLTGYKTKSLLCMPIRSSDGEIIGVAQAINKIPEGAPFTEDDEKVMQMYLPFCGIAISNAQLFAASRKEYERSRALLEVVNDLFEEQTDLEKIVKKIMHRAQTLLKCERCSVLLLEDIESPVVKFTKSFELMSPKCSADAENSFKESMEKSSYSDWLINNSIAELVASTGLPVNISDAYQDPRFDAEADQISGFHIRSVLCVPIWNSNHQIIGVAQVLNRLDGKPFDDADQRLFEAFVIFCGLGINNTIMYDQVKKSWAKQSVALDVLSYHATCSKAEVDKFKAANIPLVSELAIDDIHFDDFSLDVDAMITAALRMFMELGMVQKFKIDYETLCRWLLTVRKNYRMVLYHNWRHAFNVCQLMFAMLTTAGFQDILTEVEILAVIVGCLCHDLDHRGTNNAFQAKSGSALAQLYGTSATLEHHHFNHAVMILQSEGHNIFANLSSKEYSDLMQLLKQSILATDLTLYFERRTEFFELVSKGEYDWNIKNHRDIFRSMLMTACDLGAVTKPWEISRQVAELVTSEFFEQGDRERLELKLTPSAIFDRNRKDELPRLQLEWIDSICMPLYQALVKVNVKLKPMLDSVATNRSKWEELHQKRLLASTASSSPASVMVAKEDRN

1-methyl-5-{2-propoxy-5-[[1-methyl-1-(2-pyrrolidin-1-yl)ethyl]aminosulfonyl]phenyl}-3-propyl-1,6-dihydro-7H-pyrazolo[4,3-D]pyrimidin-7-one maleate
hygroscopicity (in words) [1]: low moisture absorption; also recorded: no hygroscopicity

CCCc1nn(C)c2c(=O)[nH]c(-c3cc(S(=O)(=O)N4CCN(C)CC4)ccc3OCC)nc12 [Sildenafil, reference compound]
ICP/BP increasing rate (%) [2]: 73.10 ± 36.24 %
IC50 [3]: 0.46 µM
IC50 [4]: 5.83 µM
IC50 [5]: 46.9 µM
IC50 [6]: > 100 µM

CCCOc1ccc(S(=O)(=O)N(C)CCN2CCCC2)cc1-c1nc2c(CCC)nn(C)c2c(=O)[nH]1 (as salt: maleate) [Maleate of compound Z, 1-methyl-5-{2-propoxy-5-[[1-methyl-1-(2-pyrrolidin-1-yl)ethyl]aminosulfonyl]phenyl}-3-propyl-1,6-dihydro-7H-pyrazolo[4,3-D]pyrimidin-7-one maleate]
melting point: 162.5 to 163.3 °C

CCCOc1ccc(S(=O)(=O)N(C)CCN2CCCC2)cc1-c1nc2c(CCC)nn(C)c2c(=O)[nH]1 [Compound Z, 1-methyl-5-{2-propoxy-5-[[1-methyl-1-(2-pyrrolidin-1-yl)ethyl]aminosulfonyl]phenyl}-3-propyl-1,6-dihydro-7H-pyrazolo[4,3-d]pyrimidin-7-one]
trait ([7]; 0 day): white
purity ([7]; 0 day, listed as Compound Z (basic)): 98.25%
trait ([7]; High humidity, 5 days): white
purity ([7]; High humidity, 5 days, listed as Compound Z (basic)): 98.02%
trait ([7]; High humidity, 10 days): white
purity ([7]; High humidity, 10 days, listed as Compound Z (basic)): 98.20%
purity [7, 21]: 94.70%
trait [7, 21]: pale yellow
purity [7, 22]: 94.55%
trait [7, 22]: yellow
purity [7, 23]: 72.49%
trait [7, 23]: pale yellow
purity [7, 24]: 55.88%
trait [7, 24]: pale yellow
chemical stability (in words) ([7]; light exposure): poor chemical stability
chemical stability (in words) ([7]; light exposure, listed as basic compound Z): poor stability
degradation ([7]; light exposure, after 10 days): ~50%
Solubility, Pure water (pH 6.1) ([8]; Pure water (pH 6.1), listed as Compound Z (basic)): insoluble
Solubility, hydrochloric acid solution (pH 1.0) ([8]; hydrochloric acid solution (pH 1.0), listed as Compound Z (basic)): >21 mg/ml
solubility (in words) [8]: poor water-solubility
solubility (in words) ([8]; listed as basic compound Z): significantly less
Solubility, buffer solution (pH 6.86) ([8]; mixed phosphate buffer solution (pH 6.86), listed as Compound Z (basic)): insoluble
solubility ([8]; standard potassium hydrogen phthalate buffer solution, pH 4, aqueous buffer, potassium hydrogen phthalate buffer solution (pH 4.0), read-out: Solubility, buffer solution (pH 4.0)): > 5.88 mg/mL
Characters [9]: white solid
Odor [9]: pungent odor
Odor ([9]; listed as compound Z): pungent odor
ICP/BP increasing rate (%) ([2]; listed as basic compound Z, 10 mg/kg): 72.22 ± 19.28 %
Moisture weight gain (%) ([1]; listed as Basic compound Z): 0.39%

CCCOc1ccc(S(=O)(=O)N(C)CCN2CCCC2)cc1-c1nc2c(CCC)nn(C)c2c(=O)[nH]1 [Maleate of compound Z, 1-methyl-5-{2-propoxy-5-[[1-methyl-1-(2-pyrrolidin-1-yl)ethyl]aminosulfonyl]phenyl}-3-propyl-1,6-dihydro-7H-pyrazolo[4,3-D]pyrimidin-7-one maleate]
purity ([7]; 0 day): 99.79%
trait ([7]; 0 day): white
purity ([7]; High humidity, 5 days): 99.79%
trait ([7]; High humidity, 5 days): white
purity ([7]; High humidity, 10 days): 99.80%
trait ([7]; High humidity, 10 days): white
purity ([7]; High temperature, 5 days): 99.69%
trait ([7]; High temperature, 5 days): white
purity ([7]; High temperature, 10 days): 99.76%
trait ([7]; High temperature, 10 days): white
purity ([7]; Light exposure, 5 days): 99.65%
trait ([7]; Light exposure, 5 days): white
purity ([7]; Light exposure, 10 days): 99.68%
trait ([7]; Light exposure, 10 days): white
chemical stability (in words) ([7]; light exposure): stable
solubility ([8]; hydrochloric acid solution, pH 1, simulated gastric fluid, hydrochloric acid solution (pH 1.0), read-out: Solubility, hydrochloric acid solution (pH 1.0)): > 42 mg/mL
solubility ([8]; mixed phosphate buffer solution, pH 6.86, aqueous buffer, mixed phosphate buffer solution (pH 6.86), read-out: Solubility, buffer solution (pH 6.86)): > 19.8 mg/mL
solubility ([8]; pure water, pH 6.1, water, Pure water (pH 6.1), read-out: Solubility, Pure water (pH 6.1)): > 11 mg/mL
Characters [9]: white solid
Odor [9]: no bad smell
ICP/BP increasing rate (%) ([2]; 10 mg/kg): 80.99 ± 17.01 %
component [10]: constant
crystal water [10]: no
stability [10]: stable
static [10]: no
hygroscopicity (in words) [1]: minimal hygroscopicity
Moisture weight gain (%) [1]: 1.56%
IC50 [3]: 0.462 µM
IC50(PDEs)/IC50(PDE5) ([3]; PDE1 vs PDE5): 203
IC50 ([11]; PDE2): > 100 µM
IC50(PDEs)/IC50(PDE5) ([11]; PDE2 vs PDE5): >10000
IC50 ([12]; PDE3): 22 µM
IC50(PDEs)/IC50(PDE5) ([12]; PDE3 vs PDE5): 9649
IC50 [4]: 4.07 µM
IC50(PDEs)/IC50(PDE5) ([4]; PDE4 vs PDE5): 1785
IC50 ([13]; PDE5): 0.00228 µM
activity and selectivity for PDE5 enzyme (in words) ([13]; in vitro enzyme inhibitors screening test): high activity and selectivity
IC50 ([14]; PDE6): 0.0452 µM
IC50(PDEs)/IC50(PDE5) ([14]; PDE6 vs PDE5): 20
IC50 [5]: > 100 µM
IC50(PDEs)/IC50(PDE5) ([5]; PDE7 vs PDE5): >10000
IC50 [6]: > 100 µM
IC50(PDEs)/IC50(PDE5) ([6]; PDE8 vs PDE5): >10000
IC50 ([15]; PDE9): > 100 µM
IC50(PDEs)/IC50(PDE5) ([15]; PDE9 vs PDE5): >10000
IC50 ([16]; PDE10): > 100 µM
IC50(PDEs)/IC50(PDE5) ([16]; PDE10 vs PDE5): >10000
IC50 ([17]; PDE11): 6.09 µM
IC50(PDEs)/IC50(PDE5) ([17]; PDE11 vs PDE5): 2671
pulmonary arterial pressure compared with the model group [18]: significantly reduce
pulmonary arterial pressure compared with the positive control group [18]: no significant difference
mean aortic pressure [19]: significantly reduce
mean pulmonary artery pressure [19]: significantly reduce
selectivity for the reduction of pulmonary artery pressure [19]: strong selectivity
ICP value (cavernous peak pressure) [20]: significantly increased
ICP/BP values (cavernous peak pressure/carotid arterial blood pressure) [20]: significantly increased
